The record followed here is article PMC12668308, “A Novel Antimalarial Agent that Inhibits Protein Synthesis in Plasmodium falciparum” (Angewandte Chemie (International Ed. in English), 2025).

The subject of one data set is Dd2b2^WT. Put plainly: [3H]-hypoxanthine incorporation assay. Format: cell-based, Plasmodium falciparum. Particulars: Plasmodium falciparum, 72 h, read-out: Parent (Dd2b2^WT) IC50. How it is done: (§1) P. falciparum asexual blood stage parasites were cultured in human red blood cells (RBC, Blutspende SRK, Zurich) at a hematocrit of 5% in RPMI 1640 medium. The RPMI 1640 medium (ThermoFisher Scientific #51800−043) was supplemented with the following: 24 mM NaHCO3 (pH 7.3, Sigma-Aldrich #31437−500G-R), 25 mM Hepes (Sigma-Aldrich #H4034−500G), 0.36 mM hypoxanthine (Sigma-Aldrich # H9377−25G), 100 µg mL^-1 neomycin (Sigma-Aldrich #N6386−100G) and 0.5% Albumax II (Thermo Fisher #11021−045). Additionally, 2 mM choline chloride (279 mg/L, Sigma-Aldrich #C7527−100G) was added to the culture to block the induction of sexual commitment as described. ^[31^] The RPMI 1640 medium and components were dissolved in water (Milli-Q purified), stirred for at least 3 h, and then sterile filtered (0.22 μm pore size) with a bottle top filter (Corning # 431118). Parasite cultures were maintained in an atmosphere of 3% O2, 4% CO2, and 93% N2 in air-tight chambers at 37 °C. The [^3H]-hypoxanthine incorporation assay was used to test compound activity in the specific parasite lines as described.^[32^] Briefly, compounds were dissolved in DMSO (10 mM) and diluted in a hypoxanthine-free culture medium. A limiting dilution was performed over a 64-fold range (6-step twofold dilution) in a 96-well plate in duplicates. For every starting concentration, a limiting dilution was performed over a 64-fold range (6-step twofold dilution) in a 96-well plate in two biological duplicates. Parasites were added at 100 µL to each well containing the compound to obtain a final parasitemia of 0.3% and haematocrit of 1.25%. The plates were incubated for 48 h before 0.25 µCi of [^3H]-hypoxanthine was added per well for an additional 24 h. Parasites were harvested on a glass-fiber filter with a Microbeta FilterMate cell harvester (Perkin Elmer, Waltham, USA) and radioactivity was counted using a MicroBeta2 liquid scintillation counter (Perkin Elmer, Waltham, US). […] The fifty percent inhibitory concentration (IC50) was calculated by using nonlinear, four parameter (variable slope) curve fitting as described ^[33^] after importing into GraphPad Prism (version 8.3.0).
31 was used for resistance selection studies using the strain Dd2b2 (kindly provided by David Fidock). Resistance selection was done as described in ^[34^]. As summarized in Table S3, an initial inoculum of 2 x 10^9 asexual blood stage parasites (at 2-2.5% parasitemia) were cultured in three independent flasks. […] Cloning via limiting dilution was performed to obtain resistant clones for further characterization as described in section 2.2.5.

Another data set deals with 3D7^WT. Put plainly: [3H]-hypoxanthine incorporation assay. The settings on record: Plasmodium falciparum, read-out: 3D7^WT IC50. Format: cell-based. How it is done:
(§2) ^[a] 72-h [^3H] hypoxanthhine incorporation assay; Data is expressed as mean±s.d.. The assay was performed in three independent biological experiments, each in biological duplicates.
(§3) P. falciparum asexual blood stage parasites were cultured in human red blood cells (RBC, Blutspende SRK, Zurich) at a hematocrit of 5% in RPMI 1640 medium. The RPMI 1640 medium (ThermoFisher Scientific #51800−043) was supplemented with the following: 24 mM NaHCO3 (pH 7.3, Sigma-Aldrich #31437−500G-R), 25 mM Hepes (Sigma-Aldrich #H4034−500G), 0.36 mM hypoxanthine (Sigma-Aldrich # H9377−25G), 100 µg mL^-1 neomycin (Sigma-Aldrich #N6386−100G) and 0.5% Albumax II (Thermo Fisher #11021−045). Additionally, 2 mM choline chloride (279 mg/L, Sigma-Aldrich #C7527−100G) was added to the culture to block the induction of sexual commitment as described. ^[31^] The RPMI 1640 medium and components were dissolved in water (Milli-Q purified), stirred for at least 3 h, and then sterile filtered (0.22 μm pore size) with a bottle top filter (Corning # 431118). Parasite cultures were maintained in an atmosphere of 3% O2, 4% CO2, and 93% N2 in air-tight chambers at 37 °C. The [^3H]-hypoxanthine incorporation assay was used to test compound activity in the specific parasite lines as described.^[32^] Briefly, compounds were dissolved in DMSO (10 mM) and diluted in a hypoxanthine-free culture medium. A limiting dilution was performed over a 64-fold range (6-step twofold dilution) in a 96-well plate in duplicates. For every starting concentration, a limiting dilution was performed over a 64-fold range (6-step twofold dilution) in a 96-well plate in two biological duplicates. Parasites were added at 100 µL to each well containing the compound to obtain a final parasitemia of 0.3% and haematocrit of 1.25%. The plates were incubated for 48 h before 0.25 µCi of [^3H]-hypoxanthine was added per well for an additional 24 h. Parasites were harvested on a glass-fiber filter with a Microbeta FilterMate cell harvester (Perkin Elmer, Waltham, USA) and radioactivity was counted using a MicroBeta2 liquid scintillation counter (Perkin Elmer, Waltham, US). The results were recorded, processed by subtraction of the mean background signal obtained from the uninfected RBC controls and expressed as percentage of untreated controls. The fifty percent inhibitory concentration (IC50) was calculated by using nonlinear, four parameter (variable slope) curve fitting as described ^[33^] after importing into GraphPad Prism (version 8.3.0).

In another data set the test system is 3D7^Cas9 pfmdr1 G182S. Format: cell-based, Plasmodium falciparum. Particulars: 3D7^Cas9 pfmdr1 G182S vs 3D7^WT. How it is done: as §2, §3
The P. falciparum 3D7 wild type parasites in the ring stage were transfected as described.^[20] Infected RBCs collected from a 5 ml culture of synchronous ring stage parasites (5-6% parasitemia at ) were added to 250 µl of packed RBCs and were co-transfected with 50µg of Cas9 and 50 µg of donor plasmids using a Bio-Rad Gene Pulser Xcell Electroporation System (single exponential pulse, 310 V, 250 µF). 24 hours post-transfection, 5 nM WR99210 (MedChemExpress #HY-116387) was added to the culture medium for six days to select for gene-edited parasites, and henceforth parasites were maintained in normal culture medium until a stably propagating parasite population was obtained. After ~4 weeks post-transfection, stably propagating parasite population were obtained. The transgenic parasite line (3D7^pfmdr1 G182S) was cloned out using an established plaque assays via limiting dilution.^[35^] […]

The test system of a further data set is Dd2b2^pfmdr1 K1065N. Format: cell-based, Plasmodium falciparum. Particulars: Dd2b2^pfmdr1 K1065N vs Dd2b2^WT. How it is done: (§4) ^[a] 72-h [^3H] hypoxanthhine incorporation assay; Data is expressed as mean±s.d. The assay was performed in three independent biological experiments, each in biological duplicates
as §3

For another data set, the system named is Dd2b2^pfmdr1 G182S. Format: cell-based, Plasmodium falciparum. Particulars: Dd2b2^pfmdr1 G182S vs Dd2b2^WT. How it is done:
as §4, §1

The test system of data set [1] is P. falciparum NF54 strain. Kind of data set: [3H]-hypoxanthine incorporation assay, asexual blood stage. Format: cell-based, Plasmodium falciparum. The settings on record: Plasmodium falciparum, NF54, asexual blood stage; mean ± s.d.; read-out: PfNF54 IC50 ± s.d. As for the experimental part:
as §1

Data set [2] is described as follows: Metabolic stability in liver S9 fractions. Format: in vitro ADME. Particulars: pooled mouse liver S9 fraction; 1 μM compound, 1 mg/mL pooled mouse liver S9, 37 °C; read-out: t1/2 Mouse Liver S9. As for the experimental part:
To evaluate phase I and phase II metabolic stability, the compound (1 μM) was incubated at 37 °C for 240 min with 1 mg/mL pooled mouse liver S9 fraction (Xenotech, Kansas City, USA), 2 mM NADPH, 1 mM UDPGA, 10 mM MgCl2, 5 mM GSH and 0.1 mM PAPS. Metabolic stability of reference compounds: testosterone, verapamil and ketoconazole was determined in parallel to confirm the enzymatic activity of mouse S9 fractions. At defined time points, the incubation was stopped by precipitation of aliquots of S9 enzymes with 2 volumes of cold acetonitrile containing internal standard (150 nM diphenhydramine or 15 nM for Altis Plus measurements). Samples were kept on ice until the end of the incubation, after which precipitated protein was removed by centrifugation (15 min, 4 °C, 4,000 g).

The next data set relates to HepG2. Put plainly: Cytotoxicity assay (MTT). Format: cell-based, human. The settings on record: Homo sapiens, HepG2; 100 µM, 48 h, MTT. How it is done:
HepG2 (2x10^4 cells per well) were seeded in 96-well flat-bottom culture plates in 100 µL of culture medium (DMEM containing 10% fetal calve serum and 1% penicillin-streptomycin). After 24 hours, the medium was replaced by fresh medium containing test compounds in a final DMSO concentration of 1%. […] Epirubicin and doxorubicin were used as positive controls in serial dilutions starting from 10 µM, and rifampicin was used as a negative control (at 100 µM). Cell viability was determined 48 h after treatment with compounds by adding 0.1 volumes of 3-(4,5-dimethylthiazol-2-yl)-2,5-diphenyltetrazolium bromide (MTT) solution (5 mg/mL sterile PBS) (Sigma, St. Louis, MO) to the wells. After incubating the cells for 30 min at 37 °C (atmosphere containing 5% CO2), medium was removed and MTT crystals were dissolved in 75 µL of a solution containing 10% SDS and 0.5% acetic acid in DMSO. The optical density (OD) of the samples was measured photometrically at 570 nm in a PHERAstar Omega plate reader (BMG labtech, Ortenberg, Germany). Percent viability was calculated by normalizing sample ODs to those of the DMSO controls. Each compound was tested in at least two independent experiments and CC50 values were determined using the nonlinear regression function of GraphPad Prism 10 (GraphPad Software, San Diego, CA, USA).

SMILES strings stand for the structures. Like-named read-outs stand apart in the source and are kept apart here.

As for `CCN(CC)Cc1cc(Nc2ccnc3cc(Cl)ccc23)ccc1O` [Amodiaquine, amodiaquine, reference compound], the IC50 (commonly the concentration at which inhibition is half-maximal) in the data set on Dd2b2^WT was 0.8 ± 0.2 nM; in the data set on 3D7^WT (3D7, 72-h assay, mean±s.d.), 0.8 ± 0.2 nM. Besides, the “IC50 fold shift relative to 3D7^WT strain” value in the data set with 3D7^Cas9 pfmdr1 G182S is 1.2. For the same molecule, the “IC50 fold shift relative to parental clone” value in the data set on Dd2b2^pfmdr1 K1065N turned out to be 1.2; in the data set on Dd2b2^pfmdr1 G182S it was 1.1.

For `CCN(CC)CCCC(C)Nc1ccnc2cc(Cl)ccc12` (stereo not drawn) [Chloroquine, chloroquine, reference compound], the half-inhibitory concentration (IC50) in the data set with Dd2b2^WT worked out at 22.3 ± 1.3 nM; in the data set on 3D7^WT (3D7, 72 h), 1.9 ± 0.1 nM.

`CC(C)(C)c1ccc(O)c(NC(=O)c2cccc(Oc3cc(C(F)(F)F)ccn3)c2)c1` [Compound 24, N-(5-(tert-Butyl)-2-hydroxyphenyl)-3-((4-(trifluoromethyl)pyridin-2-yl)oxy)benzamide]: the half-inhibitory concentration (IC50) in data set [1] was found to be 17 ± 3 nM. For the same molecule, in data set [2], the half-life at 1 µM is 5.4 ± 0.5 min.

As for `O=C(Nc1cc(CN2CCOCC2)ccc1O)c1cccc(Oc2cc(C(F)(F)F)ccn2)c1` [Compound 30, N-(2-Hydroxy-5-(morpholinomethyl)phenyl)-3-((4-(trifluoromethyl)pyridin-2-yl)oxy)benzamide], the IC50 with Dd2b2^WT came out at 5.2 ± 0.3 nM; in the data set with 3D7^WT (3D7, 72-h assay, mean±s.d.), 2.6 ± 0.5 nM; in data set [1] it was 10 ± 1.8 nM. In the data set on HepG2, the inhibition (as a rule, the drop in the measured response relative to a control, in per cent) at 100 µM was 45 ± 21%. Further, in the data set with Dd2b2^pfmdr1 K1065N, the “IC50 fold shift relative to parental clone” value came out at 11.8. Further, in data set [2], the half-life at 1 µM turned out to be 28.1 ± 5.5 min.

With `O=C(Nc1cc(CN2CCOCC2)cc(F)c1O)c1cccc(Oc2cc(C(F)(F)F)ccn2)c1` [Compound 32, N-(3-Fluoro-2-hydroxy-5-(morpholinomethyl)phenyl)-3-((4-(trifluoromethyl)pyridin-2-yl)oxy)benzamide], in data set [1], the half-inhibitory concentration (IC50) turned out to be 21.6 ± 2.65 nM. In the data set with HepG2, this molecule yielded an inhibition at 100 µM of 51 ± 1%. For the same molecule, the half-life at 1 µM in data set [2] was found to be 18.4 ± 4.2 min.

On to `O=C(Nc1cc(CN2CCOCC2)cc(Cl)c1O)c1cccc(Oc2cc(C(F)(F)F)ccn2)c1` [Compound 33, N-(3-Chloro-2-hydroxy-5-(morpholinomethyl)phenyl)-3-((4-(trifluoromethyl)pyridin-2-yl)oxy)benzamide], for which, in data set [1], the IC50 turned out to be 63 ± 7.4 nM. In the data set with HepG2, this molecule yielded an inhibition at 100 µM of 66 ± 2%. For the same molecule, the half-life at 1 µM in data set [2] came to 49.9 ± 4 min.

Consider `Oc1ccc(CN2CCOCC2)cc1NCc1cccc(Oc2cc(C(F)(F)F)ccn2)c1` [Compound 36, 4-(Morpholinomethyl)-2-((3-((4-(trifluoromethyl)pyridin-2-yl)oxy)benzyl)amino)phenol], for which, in data set [1], the half-maximal inhibitory concentration (IC50) is 808 ± 172 nM.

`Oc1ccc(CN2CCOCC2)cc1-n1cc(-c2cccc(Oc3cc(C(F)(F)F)ccn3)c2)nn1` [Compound 37, 4-(Morpholinomethyl)-2-(4-(3-((4-(trifluoromethyl)pyridin-2-yl)oxy)phenyl)-1H-1,2,3-triazol-1-yl)phenol]: in data set [1], the IC50 was determined as 21 ± 1.13 nM.

As to `CCCCN(CCCC)CC(O)c1cc(Cl)cc2c1-c1ccc(Cl)cc1/C2=C/c1ccc(Cl)cc1` (stereo not drawn) [Lumefantrine, lumefantrine, reference compound], the IC50 in the data set on Dd2b2^WT is 1.6 ± 0.8 nM; in the data set on 3D7^WT (3D7, 72-h assay, mean±s.d.), 1.6 ± 0.8 nM. The “IC50 fold shift relative to 3D7^WT strain” value with 3D7^Cas9 pfmdr1 G182S is given as 0.8. For the same molecule, the “IC50 fold shift relative to parental clone” value was found to be 0.8 in the data set on Dd2b2^pfmdr1 K1065N and 0.4 in the data set on Dd2b2^pfmdr1 G182S.

Turning to `OC(c1cc(C(F)(F)F)nc2c(C(F)(F)F)cccc12)C1CCCCN1` (stereo not drawn) [Mefloquine, mefloquine, reference compound], the concentration for half-maximal inhibition (IC50) stood at 1.1 ± 0.2 nM in the data set on Dd2b2^WT and 1.4 ± 0.5 nM in the data set with 3D7^WT (3D7, 72-h assay, mean±s.d.). For the same molecule, the “IC50 fold shift relative to 3D7^WT strain” value in the data set with 3D7^Cas9 pfmdr1 G182S is recorded as 1.3. Besides, the “IC50 fold shift relative to parental clone” value in the data set on Dd2b2^pfmdr1 K1065N came out at 0.8; with Dd2b2^pfmdr1 G182S, 0.3.
